Measured values published in PubChem BioAssay AID328 (DTP/NCI, 2004).
Several values for one entry are separate records, joined by “and”; a condition that tells them apart may be missing. Equal values may be shown once. Toxic doses and inconclusive results are not listed. The calls were made as follows: active = survival T/C of 150% or more; inactive = T/C below 125% in these data.

Test system: BDF1 mice, P388 leukemia ip, median survival T/C
Test: NCI In Vivo Anticancer Drug Screen. Data for tumor model P388 Leukemia (intraperitoneal) in B6D2F1 (BDF1) mice
Conditions: endpoint: median survival time, higher = longer survival
How it was run: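 In tumour-bearing mice, survival after compound treatment is set against the vehicle group and given as a quotient.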

[1] = dose: 100.0 mg/kg/injection, schedule: Q04DX003 (ip), vehicle: saline with Tween-80
[2] = dose: 200.0 mg/kg/injection, schedule: Q04DX003 (ip), vehicle: saline with Tween-80
[3] = dose: 400.0 mg/kg/injection, schedule: Q04DX003 (ip), vehicle: saline with Tween-80

Measured: T/C

COc1cc(NC(C)CCCN)c2nccc(C)c2c1 (configuration not stated)
inactive: dose: 12.5 mg/kg/injection, schedule: Q01DX009 (ip), vehicle: saline 101 % of control | dose: 25.0 mg/kg/injection, schedule: Q01DX009 (ip), vehicle: saline 101 % of control | dose: 50.0 mg/kg/injection, schedule: Q01DX009 (ip), vehicle: saline 90 % of control and 107 % of control | dose: 100.0 mg/kg/injection, schedule: Q01DX009 (ip), vehicle: saline 88 % of control

CN(C)c1ccc(C(=O)c2ccc(N(C)C)cc2)cc1
inactive: [1] 113 % of control | dose: 118.0 mg/kg/injection, schedule: Q04DX003 (ip), vehicle: saline with Tween-80 108 % of control | dose: 177.0 mg/kg/injection, schedule: Q04DX003 (ip), vehicle: saline with Tween-80 106 % of control and 110 % of control | [2] 109 % of control | dose: 264.0 mg/kg/injection, schedule: Q04DX003 (ip), vehicle: saline with Tween-80 120 % of control | dose: 265.0 mg/kg/injection, schedule: Q04DX003 (ip), vehicle: saline with Tween-80 103 % of control | dose: 266.0 mg/kg/injection, schedule: Q04DX003 (ip), vehicle: saline with Tween-80 100 % of control | [3] 105 % of control

COc1cc(C=O)ccc1OCc1ccccc1
inactive: dose: 1.0 mg/kg/injection, schedule: Q01DX009 (ip), vehicle: saline with Tween-80 109 % of control | dose: 2.0 mg/kg/injection, schedule: Q01DX009 (ip), vehicle: saline with Tween-80 104 % of control | dose: 4.0 mg/kg/injection, schedule: Q01DX009 (ip), vehicle: saline with Tween-80 104 % of control | dose: 8.0 mg/kg/injection, schedule: Q01DX009 (ip), vehicle: saline with Tween-80 92 % of control | [1] 95 % of control | [2] 109 % of control | [3] 109 % of control

CC1NC(=O)NC1CCCCCC(=O)O (configuration not stated)
inactive: dose: 100.0 mg/kg/injection, schedule: Q01DX009 (ip), vehicle: Klucel (hydroxypropylcellulose) (HPC) 95 % of control | dose: 100.0 mg/kg/injection, schedule: Q04DX003 (ip), vehicle: Klucel (hydroxypropylcellulose) (HPC) 116 % of control | dose: 200.0 mg/kg/injection, schedule: Q01DX009 (ip), vehicle: Klucel (hydroxypropylcellulose) (HPC) 90 % of control | dose: 200.0 mg/kg/injection, schedule: Q04DX003 (ip), vehicle: Klucel (hydroxypropylcellulose) (HPC) 104 % of control | dose: 400.0 mg/kg/injection, schedule: Q01DX009 (ip), vehicle: Klucel (hydroxypropylcellulose) (HPC) 95 % of control | dose: 400.0 mg/kg/injection, schedule: Q04DX003 (ip), vehicle: Klucel (hydroxypropylcellulose) (HPC) 91 % of control

CC(=O)NC(O)C(Cl)(Cl)Cl (configuration not stated)
inactive: dose: 100.0 mg/kg/injection, schedule: Q04DX003 (ip), vehicle: saline sonified 91 % of control | dose: 200.0 mg/kg/injection, schedule: Q04DX003 (ip), vehicle: saline sonified 108 % of control | dose: 400.0 mg/kg/injection, schedule: Q04DX003 (ip), vehicle: saline sonified 100 % of control

O=C(CC(O)(C(F)(F)F)C(F)(F)F)c1cccc(Cl)c1
inactive: dose: 100.0 mg/kg/injection, schedule: Q01DX001 (ip), vehicle: saline with Tween-80 113 % of control | dose: 200.0 mg/kg/injection, schedule: Q01DX001 (ip), vehicle: saline with Tween-80 113 % of control | dose: 400.0 mg/kg/injection, schedule: Q01DX001 (ip), vehicle: saline with Tween-80 118 % of control

CN1CCCC(C(=O)c2ccccc2)S1(=O)=O (configuration not stated)
inactive: dose: 100.0 mg/kg/injection, schedule: Q04DX002 (ip), vehicle: saline with Tween-80 104 % of control | dose: 200.0 mg/kg/injection, schedule: Q04DX002 (ip), vehicle: saline with Tween-80 114 % of control | dose: 400.0 mg/kg/injection, schedule: Q04DX002 (ip), vehicle: saline with Tween-80 107 % of control

O=C(NC1CSSC1)C(Cc1ccccc1)N1C(=O)c2ccccc2C1=O (configuration not stated)
inactive: dose: 25.0 mg/kg/injection, schedule: Q01DX009 (ip), vehicle: water 104 % of control | dose: 25.0 mg/kg/injection, schedule: Q04DX003 (ip), vehicle: water 90 % of control | dose: 50.0 mg/kg/injection, schedule: Q01DX009 (ip), vehicle: water 95 % of control | dose: 50.0 mg/kg/injection, schedule: Q04DX003 (ip), vehicle: water 107 % of control | dose: 100.0 mg/kg/injection, schedule: Q01DX009 (ip), vehicle: water 108 % of control | dose: 100.0 mg/kg/injection, schedule: Q04DX003 (ip), vehicle: water 98 % of control | dose: 200.0 mg/kg/injection, schedule: Q01DX009 (ip), vehicle: water 108 % of control | dose: 200.0 mg/kg/injection, schedule: Q04DX003 (ip), vehicle: water 100 % of control | dose: 400.0 mg/kg/injection, schedule: Q01DX009 (ip), vehicle: water 100 % of control | dose: 400.0 mg/kg/injection, schedule: Q04DX003 (ip), vehicle: water 98 % of control

CC#CC(=O)SCCNC(=O)CC
inactive: dose: 12.5 mg/kg/injection, schedule: Q04DX003 (ip), vehicle: saline with Tween-80 100 % of control | dose: 25.0 mg/kg/injection, schedule: Q04DX003 (ip), vehicle: saline with Tween-80 104 % of control | dose: 50.0 mg/kg/injection, schedule: Q04DX003 (ip), vehicle: saline with Tween-80 95 % of control and 100 % of control
